# System: prostate of testosterone-induced prostatic hyperplasia rat
# Assay: Efficacy on prostate in testosterone-induced prostatic hyperplasia rat
# Type: in vivo
# Details: testosterone 3 mg/kg/day plus test substance 0.1 or 1 mg/kg body weight/day, subcutaneous osmotic pump, 28 days, vs testosterone alone
# From the text: 12-week-old male Slc:SD (SPF) rats were obtained from Japan SLC, Inc. An acclimatization period was established for 1 week after receipt. During the acclimatization period, the rats were allowed to freely ingest a powder diet (AIN-93G).
# 2) Implantation of Osmotic Pump
# After body weight measurement, back hair was shaved under isoflurane (AbbVie GK) inhalation anesthesia, and carprofen was subcutaneously administered to the rats. Then, an incision of approximately 1 cm at the maximum was made on the cranial side in the back. An osmotic minipump Alzet (Muromachi Kikai Co., Ltd.) containing testosterone and compound 17-F or finasteride (Sigma-Aldrich Co. LLC) was subcutaneously implanted. From this osmotic pump, testosterone (3 mg/kg body weight/day) (Sigma-Aldrich Co. LLC) and compound 17-F (0.1 mg/body weight/day or 1 mg/kg body weight/day) or finasteride (0.1 mg/kg body weight/day or 1 mg/kg body weight/day) were continuously administered for 28 days. Since the implantation of the osmotic pump, the rats were allowed to freely ingest customized feed AIN-93G (Oriental Yeast Co., Ltd.) free from components derived from soybeans.
# 3) Photographing of Skin and Harvesting of Prostate
# After a lapse of 28 days, body weights were measured, and subsequently, the rats were euthanized by blood letting under isoflurane anesthesia. Back hair was shaved, followed by photographing. Then, the abdominal cavity was opened to harvest the prostate on the ventral side. Wet weights were measured.
structure (smiles),measurement,value
"Oc1ccc(CC(C=C(F)F)c2ccc(O)cc2F)c(F)c1 (centres unmarked) [Compound 17-F, 4,4′-(4,4-difluorobut-3-ene-1,2-diyl)bis(3-fluorophenol)]","size of the prostate (visual, FIG. 1)",Concentration-dependent decrease in the size of the prostate
same,weight of the prostate corrected with the body weight (FIG. 2),decreased to almost the same level as in the DMSO administration group

# Source: US11453632B2, “1-phenyl-2-phenylethane derivative” (KAO CORPORATION, priority 2018, dated 2022)
